Measurements from paper PMC9176062, “Phase Ib study of combinations of avadomide (CC‐122), CC‐223, CC‐292, and rituximab in patients with relapsed/refractory diffuse large B‐cell lymphoma” (EJHaem, 2022).

Experiments:
[1] = Steady‐state plasma pharmacokinetics; assay type: in vivo; details: human, oral, CC‐223 + CC‐292 (arm C dose level 2, day 15); for clearance: read-out: apparent plasma clearance (converted); for Vd: read-out: mean apparent volume of distribution; for Tmax: read-out: median Tmax; for half-life: read-out: terminal half‐life (converted)
Experimental: (§1) AEs were assessed according to the National Cancer Institute Common Terminology Criteria for AEs, version 4.03, up to 28 days after the last treatment. Blood samples for PK analysis were collected on days 15 to 28, predose, and at 1.5 and 3 h post‐dose on days 1 and 15 of cycle 1 for all dose cohorts. Additional blood samples were collected on day 15 from patients in dose level 2 of arm C to examine CC‐223 and CC‐292 steady‐state PK. Pharmacodynamic biomarkers of each novel agent were explored at baseline and cycle 1, day 1 (pre‐dose, and at 1.5 and 3 h) and cycle 1, day 15 (pre‐dose, and at 1.5 and 3 h), including cereblon modulation substrates in B and T cells in patients treated with CC‐122 and mTOR signaling pathway biomarkers (e.g., p4EBP1 and pAKT) in patients treated with CC‐223. Tumor assessments were performed at screening and at the end of even‐numbered cycles through cycle 6, then every three cycles through cycle 12, and every 6 months thereafter. Responses were assessed by the investigator per International Working Group 2007 criteria.
(§2) Safety analyses were performed on all patients who received ≥1 dose of study treatment (safety population). The PK population comprised all patients who took ≥1 dose of study treatment and had ≥1 measured drug concentration. […] The biomarker‐evaluable population comprised all patients who took ≥1 dose of study treatment and had ≥1 pharmacodynamic assessment. Safety and efficacy analyses were based on the safety population except where noted (PK and biomarkers). PK parameters were calculated using actual times relative to the most recent administration. The median duration of response (DOR) and median PFS were calculated per the Kaplan‐Meier method.
FIGURE S3 Summary of pharmacokinetic parameters and mean plasma concentration-time profiles of (A) CC-223 and (B) CC-292. Summary of pharmacokinetic parameters and mean plasma concentration-time profiles of (A) CC-223 and (B) CC-292. […] Data are geometric means (CV%) except for Tmax, for which medians (min, max) are presented.

[2] = test system: pAKT; assay: mTOR signaling pathway biomarker pAKT in blood; assay type: in vivo, human
Experimental: as §1
as §2, with “Safety and efficacy analyses were based on the safety population except where noted (PK and biomarkers).” left out
(§3) Per cent change from baseline in Aiolos in CD3+ T cells (A) and CD19+ B cells (B) and in p4EBP1 (C) and pAKT (D) at 3 h post‐dose on day 1 of cycle 1 (biomarker‐evaluable population). The change in Aiolos expression in CD3+ T cells and CD19+ B cells was calculated within each avadomide‐ and CC‐223‐containing arm. *p ≤ 0.05 versus baseline; **p ≤ 0.01 versus baseline; ***p ≤ 0.001 versus baseline; DL, dose level; MEFL, molecules of equivalent fluorescence label; NS, not significant

[3] = test system: p4EBP1; assay: mTOR signaling pathway biomarker p4EBP1 in blood; assay type: in vivo, human
Experimental: as §1
as §2, with “Safety and efficacy analyses were based on the safety population except where noted (PK and biomarkers).” left out
as §3

[4] = test system: patients with R/R DLBCL; assay: Treatment duration, modification, and exposure; assay type: in vivo; details: for patients with dose reductions of the drug: all patients who received the drug
Experimental: CC‐122 hydrochloride, referred to here as CC‐122, as an active pharmaceutical ingredient in capsule (AIC) formulation, was administered orally once daily (QD). An alternate intermittent schedule of CC‐122 QD for five of every seven consecutive days (5/7), which improved tolerability and reduced the frequency and severity of neutropenia in a study of CC‐122 monotherapy in DLBCL, was also explored. CC‐292 was administered orally twice daily (BID) and CC‐223 was administered orally QD. Rituximab was administered on day 8 of cycle 1, day 1 of cycles 2–6, and day 1 of every third cycle thereafter. Patients in arm A received CC‐122 and CC‐223 with or without rituximab (starting at CC‐122 2 mg QD and CC‐223 20 mg QD), patients in arm B received CC‐122 plus CC‐292 with or without rituximab (starting at CC‐122 2 mg QD and CC‐292 500 mg BID), patients in arm C were treated with CC‐223 and CC‐292 (starting at CC‐223 20 mg QD and CC‐292 500 mg BID), and those in arm D received CC‐122 plus rituximab (starting at CC‐122 2 mg QD). In arm D, a CC‐122 3 mg formulated capsule was introduced with the same strength as CC‐122 3 mg AIC. Each dose level was cleared before the next was started. If unacceptable toxicity occurred at the initial dose level, dose reductions for CC‐122 (1.5 mg QD and 1 mg QD) and CC‐223 (15 mg QD) were allowed; no starting dose reductions for CC‐292 were planned. For arm A, the Safety Review Committee (SRC) determined which of the two drugs in the doublet to reduce. For arms B and D, the CC‐122 dose was reduced and for arm C, the CC‐223 dose was reduced. Assignment of patients to study arms was at the discretion of the investigator and based on slot availability per the study design.
Patients who experienced dose‐limiting toxicity (DLT) after receiving ≥1 dose of study treatment or those who received ≥80% of planned doses of CC‐122, CC‐223, CC‐292, and rituximab during cycle 1 without experiencing a DLT were considered DLT‐evaluable. If zero out of ≥3 or ≤1 out of six evaluable patients in a cohort experienced a DLT during cycle 1 in parallel dose cohorts, then dose escalation could occur. DLTs are defined in the Supplementary Materials; individual investigators performed response assessments and determined DLTs. The NTD was defined as the dose level at which ≥2 of six evaluable patients in a cohort experienced a DLT during cycle 1. […] During cycle 1, any adverse event (AE) that led to dose reduction was considered a DLT. Patients could resume CC‐122 at a reduced dose only if they recovered to grade ≤1 within 14 days of dose interruption; two dose reductions were allowed before the patient was withdrawn from the study. Dose reductions were permitted for CC‐122, CC‐223, and CC‐292; no dose reductions were allowed for rituximab, but treatment could be discontinued at the discretion of the investigator. […] For arms A, B, and D, CC‐122 dosing was modified to the intermittent 5/7‐day schedule based on SRC review and escalated until the MTD/RP2D was established. Treatment was given until disease progression, unacceptable toxicity, or patient/physician decision to withdraw consent.
^aTreatment duration defined as date of last derived dose – date of first dose + 1.
^bDefined as the ratio of actual dose received to planned dose over the treatment period.

[5] = test system: R/R DLBCL; details: cited from earlier work
[6] = arm A (with CC‐122), 20 mg of CC‐223, 3 h post‐dose vs baseline
[7] = arm C (with CC‐292), 20 mg of CC‐223, 3 h post‐dose
[8] = arm C (with CC‐292), CC‐223 15 mg
[9] = Overall (all arms with the drug)

clearance [1] [mL/min]	Vd [1] [L]	Tmax [1] [h]	half-life [1] [h]	≥1 dose interruption ([4]; Arm C (CC-292 + CC-223))	≥1 dose interruption: Other ([4]; Arm C (CC-292 + CC-223))	≥1 dose interruption: Per protocol ([4]; Arm C (CC-292 + CC-223))	≥1 dose reduction ([4]; Arm C (CC-292 + CC-223))	≥1 dose reduction: Other ([4]; Arm C (CC-292 + CC-223))	≥1 dose reduction: Per protocol ([4]; Arm C (CC-292 + CC-223))	≥1 dose interruption [4, 9]	≥1 dose interruption: Other [4, 9]	≥1 dose interruption: Per protocol [4, 9]	≥1 dose reduction [4, 9]	≥1 dose reduction: Other [4, 9]	≥1 dose reduction: Per protocol [4, 9]	Compound	≥1 dose interruption: Adverse event ([4]; Arm C (CC-292 + CC-223))	≥1 dose reduction: Adverse event ([4]; Arm C (CC-292 + CC-223))	≥1 dose interruption: Adverse event [4, 9]	≥1 dose reduction: Adverse event [4, 9]	also measured
~405	127	1.5	~3.6	9 (64.3) n (%)	3 (21.4) n (%)	1 (7.1) n (%)	1 (7.1) n (%)	0 n (%)	0 n (%)	34 (75.6) n (%)	13 (28.9) n (%)	2 (4.4) n (%)	11 (24.4) n (%)	2 (4.4) n (%)	0 n (%)	CO[C@H]1CC[C@H](N2C(=O)CNc3ncc(-c4ccc(C(C)(C)O)nc4)nc32)CC1 [CC‐223]	8 (57.1) n (%)	1 (7.1) n (%)	31 (68.9) n (%)	8 (17.8) n (%)	median reduction in pAKT levels [2, 6]: ~70%; median reduction of pAKT levels [2, 7]: approximately 50%; reduction of pAKT levels [2, 8]: approximately 50%; median reduction in p4EBP1 levels [3, 6]: approximately 30%; increase of p4EBP1 levels from baseline [3, 7]: approximately 8%; reduction of p4EBP1 [3, 8]: approximately 30%; ≥1 dose interruption ([4]; Arm A (Avadomide + CC-223 ± R)): 25 (80.6) n (%); ≥1 dose interruption: Adverse event ([4]; Arm A (Avadomide + CC-223 ± R)): 23 (74.2) n (%); ≥1 dose interruption: Other ([4]; Arm A (Avadomide + CC-223 ± R)): 10 (32.3) n (%); ≥1 dose interruption: Per protocol ([4]; Arm A (Avadomide + CC-223 ± R)): 1 (3.2) n (%); ≥1 dose reduction ([4]; Arm A (Avadomide + CC-223 ± R)): 10 (32.3) n (%); ≥1 dose reduction: Adverse event ([4]; Arm A (Avadomide + CC-223 ± R)): 7 (22.6) n (%); ≥1 dose reduction: Other ([4]; Arm A (Avadomide + CC-223 ± R)): 2 (6.5) n (%); ≥1 dose reduction: Per protocol ([4]; Arm A (Avadomide + CC-223 ± R)): 0 n (%); patients with dose reductions of the drug [4]: 24.4%
~1170	334	1.5	~3.3	6 (42.9) n (%)	1 (7.1) n (%)	1 (7.1) n (%)	4 (28.6) n (%)	1 (7.1) n (%)	1 (7.1) n (%)	20 (48.8) n (%)	9 (22.0) n (%)	2 (4.9) n (%)	16 (39.0) n (%)	9 (22.0) n (%)	2 (4.9) n (%)	C=CC(=O)Nc1cccc(Nc2nc(Nc3ccc(OCCOC)cc3)ncc2F)c1 [CC‐292]	3 (21.4) n (%)	3 (21.4) n (%)	8 (19.5) n (%)	8 (19.5) n (%)	≥1 dose interruption ([4]; Arm B (Avadomide + CC-292 ± R)): 14 (51.9) n (%); ≥1 dose interruption: Adverse event ([4]; Arm B (Avadomide + CC-292 ± R)): 5 (18.5) n (%); ≥1 dose interruption: Other ([4]; Arm B (Avadomide + CC-292 ± R)): 8 (29.6) n (%); ≥1 dose interruption: Per protocol ([4]; Arm B (Avadomide + CC-292 ± R)): 1 (3.7) n (%); ≥1 dose reduction ([4]; Arm B (Avadomide + CC-292 ± R)): 12 (44.4) n (%); ≥1 dose reduction: Adverse event ([4]; Arm B (Avadomide + CC-292 ± R)): 5 (18.5) n (%); ≥1 dose reduction: Other ([4]; Arm B (Avadomide + CC-292 ± R)): 8 (29.6) n (%); ≥1 dose reduction: Per protocol ([4]; Arm B (Avadomide + CC-292 ± R)): 1 (3.7) n (%); patients with dose reductions of the drug [4]: 39.0%
–	–	–	–	–	–	–	–	–	–	–	–	–	–	–	–	O=C(/C=C\n1cnc(-c2cc(C(F)(F)F)cc(C(F)(F)F)c2)n1)NNc1cnccn1 [selinexor, reference compound]	–	–	–	–	CR rates ([5]; monotherapy, third‐line setting): 12%
–	–	–	–	–	–	–	–	–	–	–	–	–	–	–	–	axicabtagene ciloleucel	–	–	–	–	24‐month PFS ([5]; patients with a complete response): 72%
